Measurements taken from PMC9775322, “An Integrated Analysis of Mechanistic Insights into Biomolecular Interactions and Molecular Dynamics of Bio-Inspired Cu(II) and Zn(II) Complexes towards DNA/BSA/SARS-CoV-2 3CL^pro by Molecular Docking-Based Virtual Screening and FRET Detection” (Biomolecules, 2022).

Tests used:
[1] = test system: CT-DNA; assay: DNA cleavage by agarose gel electrophoresis in presence of H2O2; assay type: biochemical, calf; details: in the presence of H2O2, agarose gel
Excerpt: The DNA nuclease characteristics were scrutinized of all substances along with DNA containing H2O2 and Tris-HCl buffer solution with a pH of 7.4 [19]. The gel layer was discarded from the tank solution after the experiment was finished and put in front of a UV transilluminator, and each band lane was also scrutinized with the control (DNA + H2O2).
2.1. Resources and Techniques
We purchased the essential chemical substances and other reagents from Sigma Aldrich repository. Numerous analytical and spectral measurements were utilized to describe all the test compounds, including Bruker 300 MHz 1H NMR spectrometer, or Avance III HD Nanobay 400 MHz, Shimadzu FT-IR spectrometer, Shimadzu UV-Vis 1800, Varian E112 EPR spectrometer, Bruker Daltonics ESI-MS 3000 or Bruker Compact qTOFMS coupled to an LC system and (Varian Inc, USA, 410 proStar binary LC with 500 MS, IT, and PDA detectors, or Thermo Ultimate 3000 with PDA), Bruker AXS KAPPA APEX-2 or D8 ADVANCE diffractometers (SCXRD) and other analytical techniques. The further details were encapsulated in our previous reports.
2.2. DNA/BSA interaction studies
2.2.1. […]
After the completion of the experiment, the gel layer was taken out of the tank solution and exposed to a UV transilluminator. All band lanes were evaluated and compared to the control (DNA+H2O2) using bromophenol blue, […] is useful for visually analyzing the migrated band lanes for the degree of DNA cleavage. […]
By increasing the concentration of DNA (0 –50 μM), electronic absorption titrations were performed at the fixed concentration (50 μM) of all test compounds in aqueous media at room temperature. […] Using the molar extinction coefficient (6600 M −1 cm−1) at 260 nm, it was also possible to measure the DNA concentration per nucleotide and polynucleotide, denoting that the DNA was sufficiently free of protein by the ratio of absorbance at 260 and 280 nm of roughly 1.8 –1.9 [21, 22]. When raising the concentration of DNA in compound solution, up to the point of completely binding, the decrease in absorbance intensity was carefully observed.

[2] = test system: CT-DNA; assay: DNA binding by UV–visible absorption titration; design: species or system calf; details: for ΔGb° values, range over all methods (WS, BH, SK): DNA binding; for ΔGb° values, range over all methods (WS, BH, SK) / Kb, BH–I (Benesi–Hildebrand method I) / Kb, BH–II (Benesi–Hildebrand method II) / Kb, SK–I (Sakthi–Krause method I) / Kb, SK–II (Sakthi–Krause method II) / Kb, WS–I (Wolfe-Shimmer method I) / Kb, WS–II (Wolfe-Shimmer method II): UV–Vis titration; for % H (hypochromism) / Δλ nm (red shift on binding to CT-DNA): compound 50 μM, DNA 0–50 μM, Tris-HCl buffer pH 7.4, 25 °C; for Kb, BH–I (Benesi–Hildebrand method I) / Kb, BH–II (Benesi–Hildebrand method II) / Kb, SK–I (Sakthi–Krause method I) / Kb, SK–II (Sakthi–Krause method II) / Kb, WS–I (Wolfe-Shimmer method I) / Kb, WS–II (Wolfe-Shimmer method II): intrinsic DNA binding constant; for ΔGb°, BH–I / ΔGb°, BH–II / ΔGb°, SK–I / ΔGb°, SK–II / ΔGb°, WS–I / ΔGb°, WS–II: −RT ln Kb, T = 298 K
Procedure: The DNA-binding experiment was performed by a UV–visible spectrophotometer by raising the DNA concentration from zero to 50 μM to the given concentration of all samples (50 μM) in Tris-HCl buffer with a pH of 7.4 at 25 °C [21, 22].
2.2.2. Evaluation of DNA-binding characteristics
By increasing the concentration of DNA (0 –50 μM), electronic absorption titrations were performed at the fixed concentration (50 μM) of all test compounds in aqueous media at room temperature. The Tris-HCl buffer (5mM Tris-HCl /50 mM NaCl, pH = 7.2) solution was guaranteed to be pure and contain sufficient amounts of DNA. Using the molar extinction coefficient (6600 M −1 cm−1) at 260 nm, it was also possible to measure the DNA concentration per nucleotide and polynucleotide, denoting that the DNA was sufficiently free of protein by the ratio of absorbance at 260 and 280 nm of roughly 1.8 –1.9 [21, 22]. When raising the concentration of DNA in compound solution, up to the point of completely binding, the decrease in absorbance intensity was carefully observed. […]
ɛa is represented as the apparent absorption coefficient value for the MLCT band at a specific concentration of deoxyribonucleic acid and evaluated from Abs/[complex]. ɛ f and ɛb are the absorption coefficients for the chemical substance alone and completely interacted with deoxyribonucleic acid, respectively. ∆Amax = (Amax–A0); ∆A=(Ax–A0), where A0, Ax and Amax are denoted as the optical density of chemical substances alone, the middle form, and the completely interacted form with deoxyribonucleic acid, respectively.

[3] = test system: Salmonella enteric serovar typhi; assay: Agar disc diffusion antibacterial test; assay type: cell-based; details: B; for Inhibition %: (T–C)/T × 100
[4] = test system: Escherichia coli; assay: Agar disc diffusion antibacterial test; details: for diameter of clear zone inhibition / Inhibition %: A, (-) Escherichia coli; for diameter of clear zone inhibition: 20 µL of 100 µM on 6 mm disc, Control (DMSO) = 6 mm; for Inhibition %: (T–C)/T × 100
[5] = 20 µL of 100 µM on 6 mm disc, Control (DMSO) = 6 mm

SMILES | DNA cleavage (chemical nuclease activity) [1] | ΔGb° values, range over all methods (WS, BH, SK) [2] | % H (hypochromism) [2] | Δλ nm (red shift on binding to CT-DNA) [2] | Kb, BH–I (Benesi–Hildebrand method I) [2] | Kb, BH–II (Benesi–Hildebrand method II) [2] | Kb, SK–I (Sakthi–Krause method I) [2] | Kb, SK–II (Sakthi–Krause method II) [2] | Kb, WS–I (Wolfe-Shimmer method I) [2] | Kb, WS–II (Wolfe-Shimmer method II) [2] | ΔGb°, BH–I [2] | ΔGb°, BH–II [2] | ΔGb°, SK–I [2] | ΔGb°, SK–II [2] | ΔGb°, WS–I [2] | ΔGb°, WS–II [2] | diameter of clear zone inhibition [3, 5] | Inhibition % [3] | diameter of clear zone inhibition [4] | Inhibition % [4] | other results
[O-]c1ccccc1N=Cc1ccc(N2CCOCC2)cc1.[O-]c1ccccc1N=Cc1ccc(N2CCOCC2)cc1.[Zn+2].c1cnc2c(c1)ccc1cccnc12 [(2b), [Zn^II(L)2(phen)]] | partially cleaves DNA | −24.47 to −24.65 kJmol^−1 | 55.75% | 5 nm | 20131 M⁻¹ | 20035 M⁻¹ | 19471 M⁻¹ | 20897 M⁻¹ | 19930 M⁻¹ | 20811 M⁻¹ | −24.55 kJmol^−1 | −24.54 kJmol^−1 | −24.47 kJmol^−1 | −24.65 kJmol^−1 | −24.53 kJmol^−1 | −24.64 kJmol^−1 | 10 mm | 40% | 10 mm | 40% | 
Oc1ccccc1N=Cc1ccc(N2CCOCC2)cc1 [(HL), 2-(4-morpholinobenzylideneamino)phenol] | No discernible DNA cleavage |  | 46.88% | 4 nm | 1.0545 (1.0545) × 10^4 M^−1 | 1.0545 (1.0545) × 10^4 M^−1 | 8775 M⁻¹ | 15618 M⁻¹ | 15169 M⁻¹ | 15480 M⁻¹ | −22.95 (−22.95) kJmol^−1 | −22.95 (−22.95) kJmol^−1 | −22.50 kJmol^−1 | −23.92 kJmol^−1 | −23.85 kJmol^−1 | −23.90 kJmol^−1 |  | 33% |  | 33% | zone of inhibition at 100 µM ([3]; 20 µL of 100 µM on 6 mm disc, Control (DMSO) = 6 mm, read-out: diameter of clear zone inhibition): 9 mm; zone of inhibition at 100 µM ([4]; Escherichia coli, read-out: diameter of clear zone inhibition): 9 mm
[Cu+2].[O-]c1ccccc1N=Cc1ccc(N2CCOCC2)cc1.[O-]c1ccccc1N=Cc1ccc(N2CCOCC2)cc1.c1cnc2c(c1)ccc1cccnc12 [(1b), [Cu^II(L)2(phen)]] | complete DNA cleavage | −24.58 to −25.12 kJmol^−1 | 56.88% | 7 nm | 25359 M⁻¹ | 25251 M⁻¹ | 20314 M⁻¹ | 21747 M⁻¹ | 20610 M⁻¹ | 21357 M⁻¹ | −25.12 kJmol^−1 | −25.11 kJmol^−1 | −24.58 kJmol^−1 | −24.74 kJmol^−1 | −24.61 kJmol^−1 | −24.70 kJmol^−1 | 10 mm | 40% | 9 mm | 33% | 
